The subject of the test is late passage TERT-immortalized 7A chicken fibroblasts stably transfected with ggMYOD. Put plainly: Myotube formation (MyHC staining) of late passage 7A TERT ggMYOD fibroblasts in different media. The following applies: 7A TERT ggMyoD cells, PDL >100; sodium butyrate 0.1 mM added to ME9. In kind it is cell-based. As to the method: This experiment was designed to assess expression of endogenous downstream myogenic factors (ggMyoG, ggMYMK, and ggMyHC1e) following transfection with a vector encoding ggMYOD in late passage (PDL >100) immortalized fibroblast cells compared to primary fibroblasts. TERT-immortalized 7A fibroblasts were cultured for PDL >100 prior to transfection. For these experiments, a vector including a PGK promoter driving expression of a nucleic acid sequence encoding ggMYOD was transfected into TERT-immortalized 7A chicken fibroblasts (“7A TERT”) or primary fibroblasts using Lipofectamine 3000. Each vector included a puromycin selection cassette to enable selection. Following transfection and selection (0.5 mg/mL puromycin for 4 days), fibroblasts were exposed either to differentiation media (i.e., DMEM/F-12, 2% horse serum) or proliferation media (i.e., ME9; referred to as “undifferentiated” sample (see also culture medias described in FIG. 2)) prior to being assessed for myogenic marker expression using qPCR.
To assess whether the late passage immortalized 7A chicken fibroblasts could be induced to form myotubes, the late passage immortalized 7A chicken fibroblasts stably transfected with ggMYOD (as described above; referred to as 7A TERT ggMYOD) were cultured in media: ME58, ME9, and ME9+0.1 mM sodium butyrate. In FIGS. 13A-C MyHC staining was used to aid identification of myotubes.

SMILES strings stand for the structures. Entries after “also recorded” stand apart in the source; their conditions may differ.

In the case of `CCCC(=O)[O-].[Na+]` [sodium butyrate], the “differentiation capacity (myotube formation, MyHC staining)” value is “dramatic improvement in differentiation capacity; also recorded: significant increase in myogenic differentiation capacity”.

(Values after patent US20230220347A1, “SCALING UP MYOGENIC TISSUE: LATE PASSAGE MYOGENICITY” (Upside Foods, Inc., priority 2021, published 2023).)
